ChEMBL document CHEMBL1153103, “Bioisosterism of urea-based GCPII inhibitors: Synthesis and structure-activity relationship studies” (Bioorg Med Chem Lett, 2010)

The compounds below were run against T1, Glutamate carboxypeptidase 2 (Homo sapiens, UniProt Q04609) (assay: Inhibition of human cloned glutamate carboxypeptidase 2).
T1 sequence (Q04609 whole entry): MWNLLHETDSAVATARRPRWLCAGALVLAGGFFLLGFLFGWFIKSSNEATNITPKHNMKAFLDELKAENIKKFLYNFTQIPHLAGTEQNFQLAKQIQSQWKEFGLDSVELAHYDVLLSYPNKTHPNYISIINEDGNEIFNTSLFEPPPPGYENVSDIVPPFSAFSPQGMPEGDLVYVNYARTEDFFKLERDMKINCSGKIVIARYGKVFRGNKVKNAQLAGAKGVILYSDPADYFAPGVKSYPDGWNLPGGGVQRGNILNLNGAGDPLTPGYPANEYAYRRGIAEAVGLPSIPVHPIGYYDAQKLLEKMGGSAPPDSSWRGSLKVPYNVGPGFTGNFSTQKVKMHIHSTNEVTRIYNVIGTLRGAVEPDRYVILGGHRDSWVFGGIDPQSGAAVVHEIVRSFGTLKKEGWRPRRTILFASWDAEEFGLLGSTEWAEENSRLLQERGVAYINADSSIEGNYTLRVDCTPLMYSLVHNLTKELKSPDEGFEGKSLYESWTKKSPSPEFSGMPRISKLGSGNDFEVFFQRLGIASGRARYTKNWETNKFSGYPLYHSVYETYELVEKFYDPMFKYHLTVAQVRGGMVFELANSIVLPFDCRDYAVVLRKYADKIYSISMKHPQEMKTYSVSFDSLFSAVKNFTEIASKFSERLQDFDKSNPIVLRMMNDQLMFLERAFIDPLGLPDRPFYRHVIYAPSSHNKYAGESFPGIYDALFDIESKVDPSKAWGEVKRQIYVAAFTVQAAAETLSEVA

| Ki [µM] | Structure (SMILES) |
| --- | --- |
| 0.254 | O=C(N[C@@H](CCCCNC(=O)c1ccc(I)cc1)C(=O)O)N[C@@H](CC1CO1)C(=O)O (some centres undefined) |
| 0.0053 | O=C(N[C@@H](CCCCNC(=O)c1ccc(I)cc1)C(=O)O)N[C@@H](Cc1ccco1)C(=O)O |
| 0.0162 | O=C(N[C@@H](CCCCNC(=O)c1ccc(I)cc1)C(=O)O)N[C@@H](Cc1cccs1)C(=O)O |
| 0.105 | O=C(N[C@@H](CCCCNC(=O)c1ccc(I)cc1)C(=O)O)N[C@@H](Cc1ccncc1)C(=O)O |
| 0.0523 | CCC[C@H](NC(=O)N[C@@H](CCCCNC(=O)c1ccc(I)cc1)C(=O)O)C(=O)O |
| 0.0241 | CC(=O)SCCC[C@H](NC(=O)N[C@@H](CCCCNC(=O)c1ccc(I)cc1)C(=O)O)C(=O)O |
| 0.0161 | O=C(N[C@@H](CCCCNC(=O)c1ccc(I)cc1)C(=O)O)N[C@@H](Cc1cscn1)C(=O)O |
| 3.43 | O=C(O)CCCNC(=O)N[C@@H](CCCCNC(=O)c1ccc(I)cc1)C(=O)O |
| 0.0851 | O=C(N[C@@H](CCCCNC(=O)c1ccc(I)cc1)C(=O)O)N[C@H](C(=O)O)c1ccc(O)cc1 |
| 0.0053 | C#CC[C@H](NC(=O)N[C@@H](CCCCNC(=O)c1ccc(I)cc1)C(=O)O)C(=O)O |
| 0.32 | NC(=O)C[C@H](NC(=O)N[C@@H](CCCCNC(=O)c1ccc(I)cc1)C(=O)O)C(=O)O |
| 1.32 | O=C(O)CNC(=O)N[C@@H](CCCCNC(=O)c1ccc(I)cc1)C(=O)O |
| 0.132 | N#CC[C@H](NC(=O)N[C@@H](CCCCNC(=O)c1ccc(I)cc1)C(=O)O)C(=O)O |
| 0.794 | O=C(N[C@@H](CCCCNC(=O)c1ccc(I)cc1)C(=O)O)N[C@H](Cc1ccco1)C(=O)O |
| 0.285 | COc1cc(C(NC(=O)N[C@@H](CCCCNC(=O)c2ccc(I)cc2)C(=O)O)C(=O)O)ccc1O (some centres undefined) |
| 0.795 | O=C(N[C@@H](CCCCNC(=O)c1ccc(I)cc1)C(=O)O)N[C@H](Cc1cccs1)C(=O)O |
| 0.0972 | O=C(N[C@@H](CCCCNC(=O)c1ccc(I)cc1)C(=O)O)N[C@@H](Cc1cccnc1)C(=O)O |
| 0.318 | O=C(N[C@@H](CCCCNC(=O)c1ccc(I)cc1)C(=O)O)NC1(C(=O)O)CC1 |

The compounds below were run against T1, Glutamate carboxypeptidase 2 (assay: Inhibition of glutamate carboxypeptidase 2 in human LNCaP cells by fluorescence based NAALADase assay).
Format: cell-based

| Ki [µM] | Structure (SMILES) |
| --- | --- |
| 13 | CC(C)C[C@H](NC(=O)NC(C(=O)O)c1cc(O)cc(O)c1)C(=O)O (some centres undefined) |
| 7.5 | COC(=O)[C@H](CC(C)C)NC(=O)N[C@@H](CCC(N)=O)C(=O)O |
| > 1000 | CC(C)C[C@H](NC(=O)NC(C(=O)O)c1cccc(O)c1)C(=O)O (some centres undefined) |
| 3 | CC(C)C[C@H](NC(=O)N[C@@H](Cc1cccc(C(=O)O)c1)C(=O)O)C(=O)O |
| > 1000 | COC(=O)[C@H](CC(C)C)NC(=O)N[C@@H](Cc1cccc(C(=O)O)c1)C(=O)O |
| > 1000 | COC(=O)[C@H](CC(C)C)NC(=O)N[C@@H](Cc1cccc(O)c1)C(=O)O |
| 3.5 | CSCCC[C@H](NC(=O)N[C@@H](CC(C)C)C(=O)O)C(=O)O |
| > 1000 | COC(=O)[C@H](CC(C)C)NC(=O)NC(C(=O)O)c1cccc(O)c1 (some centres undefined) |
| 0.25 | COc1cc(C(NC(=O)N[C@@H](CC(C)C)C(=O)O)C(=O)O)ccc1O (some centres undefined) |
| 0.7 | CC(C)C[C@H](NC(=O)N[C@@H](Cc1ccc(O)cc1)C(=O)O)C(=O)O |
| 0.775 | CC(C)C[C@H](NC(=O)N[C@H](C(=O)O)c1ccc(O)cc1)C(=O)O |
| 13 | CC(C)C[C@H](NC(=O)N[C@@H](Cc1ccc(O)c(I)c1)C(=O)O)C(=O)O |
| 3 | COC(=O)[C@H](CC(C)C)NC(=O)NC(C(=O)O)c1ccc(O)c(F)c1 (some centres undefined) |

The remaining lines, values behind:

| Structure (SMILES) | Ki [µM] |
| --- | --- |
| COC(=O)[C@H](CC(C)C)NC(=O)N[C@H](C(=O)O)c1cc(Br)c(O)c(Br)c1 | 0.575 |
| COC(=O)[C@H](CC(C)C)NC(=O)NC(C(=O)O)c1ccc(F)c(OC)c1 (some centres undefined) | > 1000 |
| COc1cc(C(NC(=O)N[C@@H](CC(C)C)C(=O)OC(C)C)C(=O)O)ccc1O (some centres undefined) | 0.081 |
| COC(=O)[C@H](CC(C)C)NC(=O)N[C@H](C(=O)O)c1ccc(O)c(I)c1 | 0.475 |
| COC(=O)[C@H](CC(C)C)NC(=O)N[C@H](C(=O)O)c1ccc(O)c(Br)c1 | 0.4 |
| CC(C)C[C@H](NC(=O)NC(C(=O)O)c1ccc(O)c(I)c1)C(=O)OC(C)C (some centres undefined) | 0.275 |
| COC(=O)[C@H](CC(C)C)NC(=O)NC(C(=O)O)c1ccc(O)c(OC)c1 (some centres undefined) | 0.153 |
| COC(=O)[C@H](CC(C)C)NC(=O)N[C@@H](CCCSC)C(=O)O | > 1000 |
